Tested on: S.mutans biofilms
Assay: Follow-up observation of pH of washes of a laboratory model of S. mutans biofilms in 10% sucrose
Type: cell-based, Streptococcus mutans
Method: Example No. 2. Follow-up observation of pH of washes of a laboratory model of S. mutans biofilms.
Inoculum of S.mutans control strain was prepared from an ampoule. The ampoule with the dried strain was opened sterilely over a drier or a tray. The upper end of the ampoule was heated on a burner flame, and paraffin was removed; then a piece of sterile absorbent cotton moistened in sterile water was carefully touched to the pulled end of the ampoule so that a small crack appeared, and the same wet cotton was passed around the tip of the ampoule. After the crack had formed, the end of the ampoule was removed with a light blow of tweezers. After opening the ampoule, 0.3-0.5 ml of heart-brain broth was sterilely poured in. After dissolution of the dry contents, the ampoule was transferred with a Pasteur pipette into tubes with 2 ml of heart-brain broth and grown at 37°C for 2 hours in a thermostat in 5% CO2 medium. To restore full viability, 1-2 passages on nutrient media appropriate for the microbes of the species were required. 2 Petri dishes with agar containing 5% horse blood were seeded with 0.1 ml of a 2-hour culture on heart-brain broth of the strain. Petri dishes were incubated at 37°C for 18 hours in an incubator containing 5% CO2. Gram stained smears were prepared from the grown colonies to assess the tinctorial, phenotypic properties and homogeneity of bacteria. Species membership was confirmed using MALDI-TOF reference bases.
Aqueous solutions of nisin in concentrations of 0.004 and 0.008% were taken as the working solutions for testing. […] Distilled water was used as a negative control. […] Urea was chosen due to its ability to alkalinize the environment in bacterial biofilms (Jadon et al., 2018). During the assay, a 10% sucrose solution was used, which is known to be readily metabolized by cariogenic bacteria to acid, thus contributing to the overall acidification of the medium.
The contents of the wells were extracted using an aspirator. All 6 wells of the first row were filled with 1 ml of deionized water and left for 5 min. The water was extracted with an aspirator; 1 ml of the test solution was added into the wells; in 1 min the component was removed, the wells were glazed for 1 min with deionized water, then it was removed. 250 µl of 10% sucrose was added to the wells and biofilms were scraped off the well walls with a disposable plastic loop. The resulting suspension was transferred by pipette into three Eppendorf tubes: contents of wells 1 and 2 into Eppendorf tube No. 1, contents of wells 3 and 4 into Eppendorf tube No. 2, contents of wells 5 and 6 into Eppendorf tube No. 3; next, the measurement of pH started immediately. Time points of the measurement are: 0, 1, 2, 3, 4, 5, 6, 7, 8, 9, 10, 15, 20, 30 min. After the test was finished, the electrode was washed and the described procedure was repeated for the next solution under study.

NC(N)=O [Urea, reference compound]
pH of mechanically disrupted S.mutans biofilms (Urea 0.5%, 10% sucrose, 0 min): 6.33±0.03 | pH of mechanically disrupted S.mutans biofilms (Urea 0.5%, 10% sucrose, 1 min): 6.32±0.006 | pH change (in brackets), S.mutans biofilms (Urea 0.5%, 10% sucrose, 1 min vs previous time point): -0.01 | pH of mechanically disrupted S.mutans biofilms (Urea 0.5%, 10% sucrose, 2 min): 6.22±0.01 | pH change (in brackets), S.mutans biofilms (Urea 0.5%, 10% sucrose, 2 min vs previous time point): -0.1 | pH of mechanically disrupted S.mutans biofilms (Urea 0.5%, 10% sucrose, 3 min): 6.15±0.006 | pH change (in brackets), S.mutans biofilms (Urea 0.5%, 10% sucrose, 3 min vs previous time point): -0.07 | pH of mechanically disrupted S.mutans biofilms (Urea 0.5%, 10% sucrose, 4 min): 6.09±0.006 | pH change (in brackets), S.mutans biofilms (Urea 0.5%, 10% sucrose, 4 min vs previous time point): -0.06 | pH of mechanically disrupted S.mutans biofilms (Urea 0.5%, 10% sucrose, 5 min): 6.06±0 | pH change (in brackets), S.mutans biofilms (Urea 0.5%, 10% sucrose, 5 min vs previous time point): -0.03 | pH of mechanically disrupted S.mutans biofilms (Urea 0.5%, 10% sucrose, 6 min): 6.04±0 | pH change (in brackets), S.mutans biofilms (Urea 0.5%, 10% sucrose, 6 min vs previous time point): -0.02 | pH of mechanically disrupted S.mutans biofilms (Urea 0.5%, 10% sucrose, 7 min): 6.02±0.006 | pH change (in brackets), S.mutans biofilms (Urea 0.5%, 10% sucrose, 7 min vs previous time point): -0.02 | pH of mechanically disrupted S.mutans biofilms (Urea 0.5%, 10% sucrose, 8 min): 6.0±0.01 | pH change (in brackets), S.mutans biofilms (Urea 0.5%, 10% sucrose, 8 min vs previous time point): -0.02 | pH of mechanically disrupted S.mutans biofilms (Urea 0.5%, 10% sucrose, 9 min): 5.93±0.02 | pH change (in brackets), S.mutans biofilms (Urea 0.5%, 10% sucrose, 9 min vs previous time point): -0.07 | pH of mechanically disrupted S.mutans biofilms (Urea 0.5%, 10% sucrose, 10 min): 5.83±0.02 | pH change (in brackets), S.mutans biofilms (Urea 0.5%, 10% sucrose, 10 min vs previous time point): -0.1 | pH of mechanically disrupted S.mutans biofilms (Urea 0.5%, 10% sucrose, 15 min): 5.74±0.02 | pH change (in brackets), S.mutans biofilms (Urea 0.5%, 10% sucrose, 15 min vs previous time point): -0.09 | pH of mechanically disrupted S.mutans biofilms (Urea 0.5%, 10% sucrose, 20 min): 5.46±0.02 | pH change (in brackets), S.mutans biofilms (Urea 0.5%, 10% sucrose, 20 min vs previous time point): -0.28 | pH of mechanically disrupted S.mutans biofilms (Urea 0.5%, 10% sucrose, 30 min): 5.24±0.006 | pH change (in brackets), S.mutans biofilms (Urea 0.5%, 10% sucrose, 30 min vs previous time point): -0.22 | Value of pH decrease within 30 min. of measurement (%) (Urea 0.5%, 10% sucrose, compared to the initial value): -17.22% | ability to stabilize pH in monospecies cariogenic biofilms (Urea in concentration of 0.5%, compared to the negative control): no ability to stabilize pH

Source: EP4640206A1, “NISIN FOR INHIBITING BIOFILMS” (SkyLab AG, priority 2024, dated 2025)
